The text below walks through data of patent publication US20050032873A1, “3-Amino chroman and 2-amino tetralin derivatives” (Wyeth, priority 2003, published 2005).

The structures appear in SMILES notation. Structures can show the parent of a compound that is named as a salt.

As to `NC(=O)c1ccc(F)c2c1OCC(NCCCc1c[nH]c3c(F)cc(F)cc13)C2` (stereo not drawn) (as salt: hydrochloride) [Compound 128, 3-{[3-(5,7-difluoro-1H-indol-3-yl)propyl]amino}-5-fluorochromane-8-carboxamide], the melting point was 149 °C (dec.).
The result for `CCCN(CCc1c[nH]c2ccc(F)cc12)C1CCc2cccc(OC)c2C1` (stereo not drawn) (as salt: hydrochloride) [Compound 48, N-[2-(5-fluoro-1H-indol-3-yl)ethyl]-N-(8-methoxy-1,2,3,4-tetrahydronaphthalen-2-yl)-N-propylamine] reads 105 °C (dec.); that for `NC(=O)c1ccc(F)c2c1OCC(N(CCCCc1c[nH]c3ccc(F)cc13)CC1CC1)C2` (stereo not drawn) (as salt: hydrochloride) [Compound 125, 3-{(cyclopropylmethyl)[4-(5-fluoro-1H-indol-3-yl)butyl]amino}-5-fluorochromane-8-carboxamide], 116 °C (dec.).
The value for `NC(=O)c1ccc(F)c2c1CC(NCCCc1c[nH]c3ccc(F)cc13)CO2` (stereo not drawn) (as salt: hydrochloride) [Compound 1, 8-fluoro-3-{[3-(5-fluoro-1H-indol-3-yl)propyl]amino}chromane-5-carboxamide] was 122 °C (dec.).
Consider `CN(C)C(=O)c1ccc(F)c2c1CC(N(CCCc1c[nH]c3ccc(F)cc13)C1CCC1)CO2` (stereo not drawn) (as salt: hydrochloride) [Compound 73, 3-{cyclobutyl[3-(5-fluoro-1H-indol-3-yl)propyl]amino}-8-fluoro-N,N-dimethylchromane-5-carboxamide], for which the melting point was 126 °C (dec.).
The result for `CC(CCc1c[nH]c2ccc(F)cc12)N(CC1CC1)C1COc2c(F)ccc(C(N)=O)c2C1` (single isomer, unassigned; (-)) (as salt: hydrochloride) [Compound 15a, (−)-3-{(cyclopropylmethyl)[3-(5-fluoro-1H-indol-3-yl)-1-methylpropyl]amino}-8-fluorochromane-5-carboxamide] reads 135 °C (dec.).
As for `CCCN(CCCc1c[nH]c2c(F)cc(F)cc12)C1COc2c(C(N)=O)ccc(F)c2C1` (stereo not drawn) (as salt: hydrochloride) [Compound 129, 3-[[3-(5,7-difluoro-1H-indol-3-yl)propyl](propyl)amino]-5-fluorochromane-8-carboxamide], the melting point is 130 °C (dec.).
For `CCN(CCCc1c[nH]c2c(F)cc(F)cc12)C1COc2c(C(N)=O)ccc(F)c2C1` (stereo not drawn) (as salt: hydrochloride) [Compound 132, 3-[[3-(5,7-difluoro-1H-indol-3-yl)propyl](ethyl)amino]-5-fluorochromane-8-carboxamide], the melting point was 125 °C (dec.).
The result for `CNC(=O)c1ccc(F)c2c1CC(N(CCCCc1c[nH]c3ccc(F)cc13)C1CCC1)CO2` (stereo not drawn) (as salt: hydrochloride) [Compound 95, 3-{cyclobutyl[4-(5-fluoro-1H-indol-3-yl)butyl]amino}-8-fluoro-N-methylchromane-5-carboxamide] reads 123 °C (dec.); that for `CCN(CCCc1c[nH]c2c(Cl)cccc12)C1COc2c(F)ccc(C(N)=O)c2C1` (stereo not drawn) (as salt: hydrochloride) [Compound 110, 3-[[3-(7-chloro-1H-indol-3-yl)propyl](ethyl)amino]-8-fluorochromane-5-carboxamide], 146 to 152 °C (dec.); that for `CCN(CCc1c[nH]c2ccc(F)cc12)C1COc2c(F)ccc(C(N)=O)c2C1` (stereo not drawn) (as salt: hydrochloride) [Compound 76, 3-{ethyl[2-(5-fluoro-1H-indol-3-yl)ethyl]amino}-8-fluorochromane-5-carboxamide], 127 °C (dec.).
The result for `COc1cccc2c1CC(N(CCCCc1c[nH]c3ccc(F)cc13)C1CCC1)CO2` (stereo not drawn) (as salt: hydrochloride) [Compound 36, N-cyclobutyl-N-[4-(5-fluoro-1H-indol-3-yl)butyl]-N-(5-methoxy-3,4-dihydro-2H-chromen-3-yl)amine] reads 89 °C (dec.).
